# Test results as given in paper PMC10382351, “In vivo evaluation of a novel ^18F-labeled PET radioligand for translocator protein 18 kDa (TSPO) in monkey brain” (European Journal of Nuclear Medicine and Molecular Imaging, 2023).
# Tests used:
# TSPO [1] = target: TSPO; design: method as in PMID 25123416, PMID 34756026; conditions: human brain homogenates; against [^3H]PK11195; cited from earlier work
# TSPO [2] = conditions: cited from earlier work; for BPND of whole brain: monkey brain
# [3] = test system: 18 kDa translocator protein (TSPO); assay: PET imaging of [^18F]SF51 in rhesus monkey brain with kinetic analysis (2TCM, Logan plot, Lassen plot); format: in vivo; conditions: radioligand [^18F]SF51
# Description: Electrocardiogram, body temperature, heart rate, and respiratory rate measures were monitored throughout the scan.
# Brain PET imaging was performed using a microPET Focus 220 camera (Siemens Medical Solution; Knoxville, TN). […] For baseline experiments, 20 mL of a vehicle containing 20% (2-hydroxypropyl)-β-cyclodextrin and two equivalents of HCl were injected intravenously 10 min before radioligand administration. For the blocked experiment, PK11195 was dissolved in vehicle and then injected intravenously (5 mg/kg) 10 min before radioligand injection for all three monkeys. One of the three monkeys underwent an additional blocked scan with 5 mg/kg of PBR28, performed using a MultiScan™ LFER 150 PET/CT (Mediso USA, LLC; Arlington, VA). The interval between baseline and blocked imaging sessions was at least three weeks in order to allow the monkey to recover from arterial blood sampling. Focus 220 PET images were histogrammed into 30 time frames (6 × 30, 3 × 60, 2 × 120, 4 × 300, and 15 × 600 s) and reconstructed using Fourier rebinning plus a two-dimensional filtered back-projection with scatter and attenuation correction. MultiScan LFER PET images were reconstructed with 3D-OSEM with two iterations and nine subsets and were corrected for scatter and attenuation.
# PET images were co-registered to a standardized monkey MRI template using PMOD software (PMOD version 4.1, PMOD Technologies Ltd.; Zurich, Switzerland). Thirty-three predefined regions of interest (ROIs) from a monkey brain template were applied to the co-registered PET images to obtain regional time-activity curves (Supplementary Table S2). Brain uptake was expressed as standardized uptake value (SUV), which normalizes for injected radioactivity and body weight. Using the brain time-activity curves and the radiometabolite-corrected arterial input function, the total VT was derived from a two-tissue compartment model (2TCM). Receptor occupancy by PK11195 and nondisplaceable distribution volume (VND/fP) of [^18F]SF51 were determined by an axes-transformed Lassen plot, where the y-axis reports the difference in VT between the baseline and the blocked scans, corrected by the respective fp values, and the x-axis reports the values at baseline (VTbase/fPbase).
structure (smiles),measurement,setting,value
CC[C@@H](C)N(C)C(=O)c1nc(-c2ccccc2Cl)c2ccccc2n1 [ER176],Ki ratio between LAB and HAB,TSPO [1],1.28
same,BPND of whole brain,TSPO [2],8.9
"CCC(C)N(C)C(=O)c1cc2ccccc2c(-c2ccccc2Cl)n1 (stereo not drawn) [PK11195, reference compound]",Receptor occupancy (Lassen plot),"[3]; PK11195 5 mg/kg i.v., three rhesus monkeys",102 ± 3%
same,Slope of Lassen plot (= occupancy),"[3]; PK11195 5 mg/kg, mean ± SD, n = 3",1.02 ± 0.03
CC[C@@H](C)N([11CH3])C(=O)c1nc(-c2ccccc2Cl)c2ccccc2n1 [[^11C]ER176],VT/fP in the whole brain,TSPO [2]; monkey,186 mL·cm^−3
CC[C@@H](C)N([11CH3])C(=O)c1nc(-c2cccc(F)c2)c2ccccc2n1 [[^11C]SF51],BPND of whole brain,TSPO [2],8.1
